From patent US9889183B2, “PKC activators and anticoagulant in regimen for treating stroke” (BLANCHETTE ROCKEFELLER NEUROSCIENCES INSTITUTE, priority 2010, dated 2018)

What was measured:
PKCε = target: T1, PKCε (Homo sapiens, UniProt Q02156); experiment: PKC assay with purified PKCε; type: biochemical; settings: for activation of purified PKCε (in words): FIG. 7, methyl esters
T1 construct: purchased Calbiochem
T1 sequence (Q02156 1-737): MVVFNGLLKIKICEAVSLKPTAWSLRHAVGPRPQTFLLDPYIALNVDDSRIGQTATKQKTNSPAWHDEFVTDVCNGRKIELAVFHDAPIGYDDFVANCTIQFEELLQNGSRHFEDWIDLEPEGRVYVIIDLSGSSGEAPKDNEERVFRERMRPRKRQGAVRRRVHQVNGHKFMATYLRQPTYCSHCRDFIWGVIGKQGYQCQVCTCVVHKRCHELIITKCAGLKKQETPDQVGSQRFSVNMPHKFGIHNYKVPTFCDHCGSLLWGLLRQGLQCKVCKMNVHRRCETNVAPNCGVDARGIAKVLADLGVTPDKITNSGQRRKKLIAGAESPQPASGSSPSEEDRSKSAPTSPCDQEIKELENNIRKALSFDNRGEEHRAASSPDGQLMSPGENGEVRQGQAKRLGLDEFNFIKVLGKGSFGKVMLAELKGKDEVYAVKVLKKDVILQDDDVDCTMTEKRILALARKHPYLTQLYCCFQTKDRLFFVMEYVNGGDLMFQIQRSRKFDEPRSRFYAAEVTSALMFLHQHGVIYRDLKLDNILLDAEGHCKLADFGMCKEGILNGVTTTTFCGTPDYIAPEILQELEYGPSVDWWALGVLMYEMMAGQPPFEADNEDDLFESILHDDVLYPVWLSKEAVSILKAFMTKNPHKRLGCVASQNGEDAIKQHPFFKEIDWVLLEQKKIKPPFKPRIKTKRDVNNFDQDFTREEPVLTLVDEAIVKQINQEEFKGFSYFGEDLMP
Method: PKC assay. Recombinant PKC (1 ng of PKCα or PKCε isoform) was mixed with BR-101 (DCP-LA) in the presence of 10 micromolar histones, 5 mM CaCl2, 1.2 μg/μl phosphatidyl-L-serine, 0.18 μg/μl 1,2-dioctanoyl-sn-glycerol (DAG), 10 mM MgCl2, 20 mM HEPES (pH 7.4), 0.8 mM EDTA, 4 mM EGTA, 4% glycerol, 8 μg/ml aprotinin, 8 μg/ml leupeptin, and 2 mM benzamidine. 0.5 micro Ci[^γ32P]ATP was added. The incubation mixture was incubated for 15 min at 37 degrees in a total volume of 10 microliters. The reaction was stopped by spotting the reaction mixtures on 1×2 cm strips of cellulose phosphate paper (Whatman P81) and immediately washing twice for 1 hr in 0.5% H3PO4. The cellulose phosphate strips were counted in a scintillation counter. In some experiments, phosphatidylserine, diacylglycerol, and/or calcium were removed.
DHA methyl ester was purchased from Cayman Chemical (Ann Arbor, Me.). PKC isozymes were from Calbiochem (San Diego, Calif.). Purified PKCε was purchased from Calbiochem.
(§1) Protein kinase C assay. Rat hippocampal cells were cultured and scraped in 0.2 ml homogenization buffer (20 mM Tris-HCl, pH 7.4, 50 mM NaF, 1 μg/ml leupeptin, and 0.1 mM PMSF) and homogenized by sonication a Marsonix microprobe sonicator (5 sec, 10 W). To measure PKC, 10 μl of cell homogenate or purified PKC isozyme (purchased from Calbiochem) was incubated for 15 min at 37° C. in the presence of 10 μM histones, 4.89 mM CaCl2, 1.2 μg/μl phosphatidyl-L-serine, 0.18 μg/μl 1,2-dioctanoyl-sn-glycerol, 10 mM MgCl2, 20 mM HEPES (pH 7.4), 0.8 mM EDTA, 4 mM EGTA, 4% glycerol, 8 μg/ml aprotinin, 8 μg/ml leupeptin, and 2 mM benzamidine. […][^γ32P]ATP was added and ^32P-phosphoprotein formation was measured by adsorption onto phosphocellulose as described previously. Nelson and Alkon, J. Neurochemistry (1995), vol. 65, pp. 2350-2357. For measurements of activation by BR-101 (DCP-LA) and similar compounds. PKC activity was measured in the absence of diacylglycerol and phosphatidylserine and PKC δ, ε, η, and μ were measured in the absence of added EGTA and CaCl2, as described by Kanno et al. (J. Lipid Res. 2006, vol. 47, pp. 1146-1150). Low concentrations of Ca^2+ are used because high Ca^2+ interacts with the PKC phosphatidylserine binding site and prevents activation. For measurements of bryostatin activation, 1,2-diacylglycerol was omitted unless otherwise stated.
To determine their PKC isozyme specificity, fatty acid derivatives were preincubated with purified PKC for five minutes and the PKC activity was measured radiometrically.

[1] = tested on: squamous cell carcinoma and melanoma; settings: used topically; cited from earlier work
PKC = settings: cited from earlier work
Aβ in COS cells = settings: 1 μM, cultured COS cells, 8 hours; cited from earlier work
[2] = tested on: global cerebral ischemia/hypoxia in rats; experiment: Global ischemia model, water maze (Examples 10-11); type: in vivo, rat
Method: Rats (male, Wistar, 200-225 g) were randomly divided into 6 groups (8 each) and housed for 1 week before experimentation. […] The global ischemia model used to induce vascular memory impairment was two-vessel occlusion combined with a short term systemic hypoxia. Ligation of the bilateral common carotid arteries was performed under anesthesia (pentobarbital, 60 mg/kg, i.p.). After a one-week recovery from the surgery, rats were exposed to 14-min hypoxia (5% oxygen in a glass jar). Control rats (sham operated and vehicle controls) were subjected to the same incision to isolate both common carotid arteries and to 14-min air (in the glass jar). Body temperature was kept at 37-37.5° C. using a heating light source during the surgical procedure and until the animals were fully recovered.

[3] = tested on: PKC in H19-7/IGF-IR cells; experiment: PKC activity over time in rat H19-7/IGF-IR hippocampal cells; type: cell-based; settings: treated cells, 8 hours; data not shown
Method: Cell culture. Rat hippocampal H19-7/IGF-IR cells (ATCC, Manassas, Va.) were plated onto poly-L-lysine coated plates and grown at 35° C. in DMEM/10% FCS for several days until about 50% coverage was obtained. The cells were then induced to differentiate into a neuronal phenotype by replacing the medium with 5 ml N2 medium containing 10 ng/ml basic fibroblast growth factor at 39° C. and grown in T-75 flasks at 37° C. Human SH-SY5Y neuroblastoma cells (ATCC) were cultured in 45% F12K/45% MEM/10% FCS. Mouse N2A neuroblastoma cells were cultured in DMEM/10% FCS without glutamine. Rat hippocampal neurons from 18-day-old embryonic Sprague Dawley rat brains were plated on 12- or 96-well plates coated with poly-D-lysine (Sigma-Aldrich, St. Louis, Mo.) in B-27 neurobasal medium containing 0.5 mM glutamine and 25 μM glutamate (Invitrogen, Carlsbad, Calif.) and cultured for three days in the medium without glutamate. The neuronal cells were grown under 5% CO2 in an incubator maintained at 37° C. for 14 days.
as §1
PKC activators that bind to the diacylglycerol binding site, including bryostatin, gnidimacrin, and phorbol esters, produce a transient activation of PKC activity, followed by a prolonged downregulation. Nelson et al., Trends in Biochem. Sci. (2009), vol. 34, pp. 136-145. This was confirmed in cultured rat hippocampal cells. Incubation of rat H19-7/IGF-IR cells with (0.04 nM and 0.2 nM) bryostatin produced a 2-fold activation that lasted 30 min, followed by a 20% downregulation that returned to baseline by 24 hours (data not shown). […] This sustained activation was only observed in primary neurons.

[4] = non-ischemic rats, same regimens

Q: With CCCCCC1OC1C/C=C\CCCCCCCC(=O)OC (stereo in doubt) [BR-117, vernolic acid methyl ester] as the molecule, how does the “effect on PKC” value (PKCε; FIG. 8) read?
A: The value was “little or no effect”.

Q: What does the source list for CCC1CC1CC1CC1CC1CC1CC1CC1CC1CC1CCCC(=O)OC (stereo not shown) [BR-114]?
A: concentration needed to activate PKC relative to BR-101 (DCP-LA) (PKCε): approximately 100 times lower; activation of purified PKCε (in words) (PKCε): activated purified PKCε to a similar extent

Q: For C/C=C(/C)C(=O)O[C@H]1C(C)=C[C@]23C(=O)[C@@H](C=C(CO)[C@@H](O)[C@]12O)[C@H]1[C@@H](C[C@H]3C)C1(C)C [Ingenol-3-angelate], which antitumor activity [1] is on record?
A: Its antitumor activity is “exhibits antitumor activity”.

Q: What does the source list for CCCCCC1CC1CC1CC1CC1CC1CC1CC1CCCC(=O)OC (stereo not shown) [BR-115, methyl 4-(2-((2-((2-((-pentylcyclopropyl)methyl)cyclopropyl)methyl)cyclopropyl)methyl)cyclopropyl)butanoate methyl ester]?
A: concentration needed to activate PKC relative to BR-101 (DCP-LA) (PKCε): approximately 100 times lower; activation of purified PKCε (in words) (PKCε): activated purified PKCε to a similar extent

Q: For CCCCCC1CC1CC1CC1CCCCCCCCO (stereo not shown) [BR-105, linoleic alcohol dicyclopropane], which “effect on PKC” value (PKCε; FIG. 8) is on record?
A: Its value is “little or no effect”.

Q: With epoxystearic acid [BR-116] as the molecule, how does the “effect on PKC” value (PKCε; FIG. 8) read?
A: The value was “little or no effect”.

Q: With CCCCCCCC(=O)O[C@H]1/C(=C/C(=O)OC)C[C@H]2C[C@H](CO)OC(=O)C[C@H](O)C[C@@H]3CCC[C@H](C[C@@H]4CCO[C@H](/C=C/C(C)(C)[C@]1(O)O2)O4)O3 [Analog 1] as the molecule, how does the “affinity for PKC (in words)” value (PKC) read?
A: Its value is “highest affinity”.

Q: For CCCC(=O)O[C@@H]1[C@@H](C)[C@@]2(O)[C@@H](C=C(CO)C[C@]3(O)C(=O)C(C)=C[C@@H]23)[C@@H]2C(C)(C)[C@]12OC(=O)CCC [PdBu], which “effect on Aβ” value (Aβ in COS cells) is on record?
A: Its value is “increase in Aβ”.

Q: For CCCCC[C@H]1O[C@H]1CC1CC1CCCCCCCC(=O)OC (stereo partly shown) [BR-109, vernolic acid methyl ester cyclopropane], which “concentrations at which PKCε is inhibited” value (PKCε; FIG. 8) is on record?
A: The value was “above 1 μM”.

Q: Which “effect on PKC” value (PKCε; FIG. 8) does the source give for CCC1CC1CC1CC1CC1CC1CCCCCCCCO (stereo not shown) [BR-104, linolenic alcohol tricyclopropane] here?
A: The value was “little or no effect”.

Q: For Cc1ccc(OCC(=O)O)c(OCC(=O)O)c1 [MCDA, 4-Methylcatechol-diacetic acid], which “water maze spatial learning, ischemic treated vs ischemic rats” value ([2]; bryostatin-1 20 μg/m^2 i.v. 2 doses/week, 10 doses, MCDA 1.0 mg/kg i.p. daily 5 weeks, start 24 hours after hypoxia) is on record?
A: The value was “improved the learning”.

Q: And the “target quadrant ratio in probe test, drug-only vs control rats” value [2, 4]?
A: The value was “no differences”.

Q: And the “water maze spatial learning, drug-only vs control rats” value [2, 4]?
A: Its value is “no differences”.

Q: What about the “target quadrant ratio in probe test, ischemic treated vs control rats” value ([2]; same regimens) of the same molecule?
A: Its value is “no differences”.

Q: And the “target quadrant ratio in probe test, ischemic treated vs ischemic rats” value ([2]; same regimens)?
A: Its value is “group differences”.

Q: What about the “water maze spatial learning, ischemic treated vs control rats” value ([2]; same regimens) of the same molecule?
A: The value was “remained significant”.

Q: With CCCCCCCCCCCCCC(=O)O[C@@H]1[C@@H](C)[C@@]2(O)[C@@H](C=C(CO)C[C@]3(O)C(=O)C(C)=C[C@@H]23)[C@@H]2C(C)(C)[C@]12OC(C)=O [PMA, phorbol 12-myristate 13-acetate] as the molecule, how does the “PKC activity at 8 hours (downregulation)” value [3] read?
A: The value was “strongly downregulated”.
